Results on 25 molecules are retold here after publication PMC7822874, “Chemoprotective antimalarials identified through quantitative high-throughput screening of Plasmodium blood and liver stage parasites” (Scientific Reports, 2021).

What is called viability is a read-out of living cells in per cent, often relative to untreated cells.

“And” between values parts separate entries of the source, which are not always exact repeats. Equal values may be shown once. Read-outs that look alike come from different tables or passages of the source.

Data set [1] in a line: in vitro. The conditions noted are these: human, hepg2-a16-cd81egfp cells, % viability.
In data set [2] the test system is T1, Plasmodium falciparum Dd2-attB (parental line), asexual blood stages.
T1 construct: Dd2-attB, the isogenic parental line
In words: microbe, parasite or virus in culture. Also noted: replicate k of 3 (each line is one of three independent assays; the three lines of one compound and parasite line follow each other). The conditions noted are these: n = 1; for Individual replicates / Log AC50 (M): 72 h; for AC50: Plasmodium falciparum, DD2, 72 h, read-out: Individual replicates / Log AC50 (converted). The method in brief: (§1)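 The transgenic line overexpresses fumarate-dependent yeast DHODH, bypassing parasite mETC and ubiquinone-dependent parasite DHODH. A subset of compounds was run in three independent assays on both lines, and line differences were tested by two-sided Student's t-test.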

The test system of data set [3] is Plasmodium falciparum Dd2 asexual blood stage parasites. Kind of data set: microbe, parasite or virus in culture. The conditions noted are these: Plasmodium falciparum, DD2, Erythrocyte, 72 h; read-out: AC50. Details: species or system Plasmodium falciparum Dd2 in human erythrocytes; single determination (one 11-point concentration-response curve).
Data set [4] concerns T2, Plasmodium falciparum Dd2-attB-ScDHODH (transgenic line expressing yeast DHODH), asexual blood stages.
T2 construct: Dd2-attB-ScDHODH, the transgenic line that expresses yeast DHODH
In words: organism not typed. Also noted: replicate k of 3 (each line is one of three independent assays; the three lines of one compound and parasite line follow each other). To be noted: 72 h, n = 1; for AC50: read-out: Individual replicates / Log AC50 (converted). The method in brief: as §1

Data set [5] in a line: in vitro. The conditions noted are these: human, HepG2-A16-CD81EGFP cells, uninfected.
Data set [6] relates to HepG2-A16-CD81EGFP cells. To be noted: average of 2 wells, repeat 2.
The test system of data set [7] is P. berghei-ANKA-GFP-LucCON liver stage parasites in HepG2-A16-CD81EGFP cells. In words: P. berghei liver stage Pb-Luc assay, Method 1 (UCSD, 1536-well). The conditions noted are these: for activity at 1 µM / activity at 3 µM: 48 h, average of 2 wells, 1536-well plate; for activity at 1 µM: nominal 1 uM (10 mM stock), […] for 15 mM, 1.2 uM for 12 mM, 2 uM for 20 mM stock; for activity at 3 µM: nominal 3 uM (10 mM stock), 4.5 uM for 15 mM, 3.6 uM for 12 mM, 6 uM for 20 mM stock. In kind it is cell-based, Plasmodium berghei.

Turning to `O=C(O)c1cc(-c2ccccc2)cc(-c2ccccc2)[n+]1Cc1ccccc1` [MLS001240915], the viability at 3 µM in data set [1] was 98.5%.

Regarding `CCCC(=O)NC(c1ccccc1OC)c1ccc2cccnc2c1O` (stereo not drawn) [MLS000715345], the viability at 3 µM in data set [1] turned out to be 55.4%.

Turning to `CCN1CCN(Cc2ccc(NC(=O)c3cc(NC(=O)c4cc5cccc(OC)c5o4)cc(OC)c3)cc2C(F)(F)F)CC1` [MLS000911573], the viability at 3 µM in data set [1] worked out at 94.8%.

As to `CCN(CC)CCOC(=O)c1ccc(N/C=C(/C#N)c2nc(-c3ccc4c(c3)OCO4)cs2)cc1` [MLS000769346], in data set [1], the viability at 3 µM stood at 100%.

Consider `Cc1cc(OC(C)C(=O)NCCc2c[nH]c3ccccc23)c2c(C)cc(=O)oc2c1` (stereo not drawn) [MLS001158613], for which the viability at 3 µM in data set [1] was 92.7%.

`Nc1nonc1-n1nnc(C(=O)N/N=C/c2ccc(Cl)cc2)c1-c1ccc2c(c1)OCO2` [MLS001142698]: the viability at 3 µM in data set [1] worked out at 104%.

On to `Cc1ccc(-c2cc(C(F)(F)F)n3ncc(C(=O)N4CCCCC4c4cccnc4)c3n2)cc1` (stereo not drawn) [MLS000729132], for which, in data set [1], the viability at 3 µM was 89.9%.

`COc1ccc2[nH]c(C)c(CCN(Cc3cccs3)C(S)=Nc3ccccc3)c2c1` [MLS000529828]: the viability at 3 µM in data set [1] came to 86.8%.

In the case of `Oc1ccc(CNc2ccc(C(F)(F)F)cc2Cl)c2cccnc12` [NCGC00183375-01], the “Individual replicates / Log AC50 (M)” value was -5.2986 Log AC50 (M) and -5.3486 Log AC50 (M) in data set [2]; -5.2486 Log AC50 (M) and -5.0986 Log AC50 (M) in data set [4]. In addition, the AC50 is 5.03 µM in data set [2], 10.6 µM in data set [3] and 5.03 µM in data set [4].

For `CCCN1C(CC(C)C)=N[S+](=O)([O-])c2cc(NC(=O)c3cccs3)ccc21` [NCGC00473217-01], the viability at 48 h, 1 µM in data set [5] is 105%. The viability at 48 h, 3 µM in data set [5] was 106%. Further, in data set [6] (nominal 1 uM (10 mM stock), […] for 15 mM, 1.2 uM for 12 mM, 2 uM for 20 mM stock), the “HepG2 viability signal, 1 uM, repeat 2” value is recorded as 104.11%. In addition, in data set [6] (nominal 3 uM (10 mM stock), 4.5 uM for 15 mM, 3.6 uM for 12 mM, 6 uM for 20 mM stock), the “HepG2 viability signal, 3 uM, repeat 2” value is 105.41%. For the same molecule, the “Individual replicates / Log AC50 (M)” value in data set [2] was -7.2986 Log AC50 (M) and -6.9486 Log AC50 (M) and -6.9986 Log AC50 (M); in data set [4] it was -6.2986 Log AC50 (M). Moreover, the AC50 was 0.335 µM in data set [3]; 0.71 µM in data set [4]; 0.00316 µM in data set [7] (Method 1, Hill fit, 50% of maximum activity response, read-out: AC50); 0.00282 µM in data set [7] (Plasmodium berghei, Method 1, Hill fit, 50% of maximum activity response, read-out: AC50); 0.00282 µM in data set [7] (Plasmodium berghei, Method 1, log10 of molar AC50 from Hill fit, read-out: Log AC50 (converted)). The “Max Resp (signal direction of the dose response)” value in data set [7] (Method 1, Decrease = decreasing P. berghei viability with dose, Increase = increasing signal, Inactive = no dose response) is on record as “Decrease”. For the same molecule, in data set [7] (Method 1, log10 of molar AC50 from Hill fit), the “Log AC50 (M)” value is given as -8.500 M. The activity at 1 µM was determined as 8.62% in data set [7] (Plasmodium berghei, repeat 1, read-out: Pb-Luc signal, 1 uM, repeat 1); 7.89% in data set [7] (Plasmodium berghei, repeat 2, read-out: Pb-Luc signal, 1 uM, repeat 2); 4.31% in data set [7] (Plasmodium berghei, repeat 3, read-out: Pb-Luc signal, 1 uM, repeat 3). The activity at 3 µM in data set [7] (Plasmodium berghei, repeat 1, read-out: Pb-Luc signal, 3 uM, repeat 1) came to 2.42%; in data set [7] (Plasmodium berghei, repeat 2, read-out: Pb-Luc signal, 3 uM, repeat 2), 3.74%; in data set [7] (Plasmodium berghei, repeat 3, read-out: Pb-Luc signal, 3 uM, repeat 3) it was 3.33%.

As for `CCOC(=O)c1ccnc(-n2ncc(C(OCCN3CCCCC3)c3ccccc3)c2-c2ccccc2Cl)c1` (stereo not drawn) [NCGC00484789-01], in data set [2], the “Individual replicates / Log AC50 (M)” value was -5.0486 Log AC50 (M) and -4.9986 Log AC50 (M); the AC50 is 8.94 µM. In addition, in data set [4], the “Individual replicates / Log AC50 (M)” value is -5.0486 Log AC50 (M) and -4.9486 Log AC50 (M); the AC50 is 14.2 µM.

`Cc1ccc2nc(-c3ccccn3)c(Nc3ccccc3C)n2c1` [NCGC00106087-03]: in data set [2], the “Individual replicates / Log AC50 (M)” value is -5.3486 Log AC50 (M) and -5.2486 Log AC50 (M); the AC50 was 4.48 µM. Moreover, in data set [4], the “Individual replicates / Log AC50 (M)” value is -5.1986 Log AC50 (M) and -5.1486 Log AC50 (M); the AC50 was 5.64 µM.

Regarding `Oc1ccc(CNCc2ccccc2F)c2cccnc12` [NCGC00184908-01], the “Individual replicates / Log AC50 (M)” value in data set [2] is -5.3986 Log AC50 (M) and -5.0486 Log AC50 (M) and -5.1986 Log AC50 (M); in data set [4], -4.7486 Log AC50 (M) and -5.1486 Log AC50 (M) (2×).

For the molecule `O=C(c1cccc(-c2cc(O)c3ncccc3c2)c1)N1CCCCC1` [NCGC00244533-01], in data set [2], the “Individual replicates / Log AC50 (M)” value is -5.0486 Log AC50 (M) and -5.0986 Log AC50 (M); the AC50 is 6.33 µM. Also, in data set [4], the “Individual replicates / Log AC50 (M)” value is -5.1486 Log AC50 (M) and -4.9486 Log AC50 (M); the AC50 was 7.1 µM.

As for `Oc1cc(Nc2ccncc2)cc2cccnc12` [NCGC00183791-01], the “Individual replicates / Log AC50 (M)” value was -4.7486 Log AC50 (M) and -4.7986 Log AC50 (M) in data set [2]; -4.7486 Log AC50 (M) in data set [4]. Besides, the AC50 in data set [2] and in data set [4] was 20 µM in each case.

As for `Oc1ccc(CCc2ccccc2)c2cccnc12` [NCGC00184902-01], in data set [2], the “Individual replicates / Log AC50 (M)” value was -5.2486 Log AC50 (M) and the AC50 is 7.1 µM. Besides, in data set [4], the “Individual replicates / Log AC50 (M)” value was -4.8486 Log AC50 (M) and -5.1486 Log AC50 (M); the AC50 is 7.1 µM.

With `O=C(NCCC12CCCN1CCC2)c1cccc(-c2cc(O)c3ncccc3c2)c1` [NCGC00249386-01], in data set [2], the “Individual replicates / Log AC50 (M)” value was -4.7986 Log AC50 (M) and the AC50 is 17.8 µM. Moreover, in data set [4], the “Individual replicates / Log AC50 (M)” value is recorded as -4.6986 Log AC50 (M) and the AC50 is 17.8 µM.

For the molecule `Oc1ccc(NCc2ccccc2F)c2cccnc12` [NCGC00184883-01], in data set [2], the “Individual replicates / Log AC50 (M)” value is -5.0986 Log AC50 (M) and -5.0486 Log AC50 (M); the AC50 was 12.6 µM. Moreover, in data set [4], the “Individual replicates / Log AC50 (M)” value is given as -5.0986 Log AC50 (M) and the AC50 was 12.6 µM.

Regarding `Oc1ccc(CNc2ccc3ccccc3n2)c2cccnc12` [NCGC00241029-01], the “Individual replicates / Log AC50 (M)” value is -4.8986 Log AC50 (M) and -5.0486 Log AC50 (M) in data set [2]; -4.8986 Log AC50 (M) in data set [4]. Moreover, the AC50 in data set [2] and in data set [4] was 7.1 µM throughout.

`COc1ccc(-c2c(-c3cc(N)ccn3)ncn2C)cc1` [NCGC00421914-01]: in data set [2], the “Individual replicates / Log AC50 (M)” value was -4.7986 Log AC50 (M) and -4.9486 Log AC50 (M); the AC50 is 14.2 µM. Besides, in data set [4], the “Individual replicates / Log AC50 (M)” value is reported as -4.9986 Log AC50 (M) and the AC50 is 12.6 µM.

Consider `CN1CCN(C(=O)c2ccc(-c3cnc4c(O)ccc(C(=O)O)c4c3)cc2)CC1` [NCGC00189504-01], for which, in data set [2], the “Individual replicates / Log AC50 (M)” value is recorded as -4.7986 Log AC50 (M) and the AC50 is 17.8 µM. In addition, in data set [4], the “Individual replicates / Log AC50 (M)” value is on record as -4.7486 Log AC50 (M) and the AC50 was 15.9 µM.

Consider `O=C(O)c1ccc(O)c2ncc(NC3CCNC3)cc12` (stereo not drawn) [NCGC00241039-01], for which, in data set [2], the “Individual replicates / Log AC50 (M)” value is -4.7486 Log AC50 (M) and -4.7986 Log AC50 (M); the AC50 was 20 µM. In data set [4], the “Individual replicates / Log AC50 (M)” value is -4.8486 Log AC50 (M) and -4.6486 Log AC50 (M); the AC50 was 20 µM.

Regarding `O=C1C(c2ccc(C(F)(F)F)cc2)=C(Nc2ccc(Cl)cc2)c2ccccc21` [NCGC00107304-02], the “Individual replicates / Log AC50 (M)” value in data set [2] was -6.0486 Log AC50 (M) and -5.9486 Log AC50 (M) (2×); in data set [4], -5.1986 Log AC50 (M) and -5.3486 Log AC50 (M) and -5.6486 Log AC50 (M).

`CN(C)CCCNC(=O)c1ccc(-c2cnc3c(O)cccc3c2)cc1` [NCGC00189502-01]: in data set [2], the “Individual replicates / Log AC50 (M)” value is on record as -4.9986 Log AC50 (M) and the AC50 is 7.1 µM. In data set [4], the “Individual replicates / Log AC50 (M)” value is -5.0486 Log AC50 (M) and -4.8986 Log AC50 (M); the AC50 was 7.97 µM.

Consider `CN(C)CCCCCNC(=O)c1cccc(-c2cc(O)c3ncccc3c2)c1` [NCGC00247747-01], for which, in data set [2], the “Individual replicates / Log AC50 (M)” value is recorded as -4.8486 Log AC50 (M) and the AC50 was 14.2 µM. In addition, the AC50 in data set [4] was 14.2 µM.
